Experimental data as given in patent US4141993A, “Compounds of diphenylcyclopentylamine type and methods for their preparation” (priority 1971, dated 1979).
Read-outs that look alike come from different tables or passages of the source.

Columns and labels:
uptake of tritiated 5-HT [1] = assay: Inhibition of the uptake of tritiated 5-HT in vivo (drug i.p., uptake in midbrain slices); design: species or system mice; conditions: for ED50: Mus musculus, ip, 0.5 h, read-out: Inhibition (50 %) of uptake in vivo, 5-HT (ED50), i.p., half an hour before the animals were killed
Method: (§1) 1. Inhibition of the uptake of tritiated 5-HT in vitro and in vivo
(§2) The drugs were administered intraperitoneally half an hour before the animals were killed and the midbrain was taken out and sliced and incubated in a mixture consisting of, per 100 mg of brain slices, 0.2 μmole of ^3 H-5-HT and 1 μmole of glucose in 2 ml of Krebs-Henseleit buffer, pH 7.4. The incubation time was 5 minutes with 5 minutes of preincubation before ^3 H-5-HT was added. The radioactive ^3 H-5-HT taken up in the slices was extracted with ethanol and the amount was determined by liquid scintillation. […] Active uptake is defined as that part of the radioactive uptake which is inhibited by a high concentration of cocaine. All doses were given at least to four animals.

5-HTP response = 5-HTP response potentiation test; format: in vivo, mice; conditions: for 5-HTP potentiation, 25 mg/kg i.p., 1h: drug 1 h before 5-HTP; for 5-HTP potentiation, 25 mg/kg i.p., 1h / 5-HTP potentiation, 25 mg/kg i.p., 4h: 0 = without effect; for 5-HTP potentiation, 25 mg/kg i.p., 4h: drug 4 h before 5-HTP
Method: 1. 5-HTP response potentiation test
Inhibition of the uptake of 5-HT potentiates the effects of administered 5-hydroxytryptophane (5-HTP) probably by increasing the amount of 5-HT at the receptor.
These small movements are quantitatively measured in an activity box, type Animex, which can distinguish between small and gross movements. The activity is measured during 20 minutes and only in the case the animals have a fullblown syndrome.

mice [2] = assay: Anticholinergic effect (mydriasis) in mice; format: in vivo
Method: (§3) Acute toxicity, behavior and anticholinergic effect (mydriasis) in mice
(§4) The compounds were given by intravenous route to 3 mice. […] Seizures, gait, sedation and grip strength were recorded. […] PD200 is the dose which increases the pupil by 200%.

[3] = test system: uptake of tritiated noradrenaline; assay: Inhibition of the uptake of tritiated noradrenaline in vitro (cortex slices); format: biochemical; conditions: for Inhibition (50 %) of uptake in vitro, NA: dl-noradrenaline 10^-7 M
Method: (§5) 2. Inhibition of the uptake of tritiated noradrenaline in vitro and in vivo
(§6) The method is found in European Journal of Pharmacology 2 (1967), 181- 186. The animals were killed half or one hour after the administration of the drugs in vivo (i.p.). The slices, made from cortex, were preincubated for five minutes and incubated with 0.1 μmole per ml of ^3 H-noradrenaline for further five minutes. The incubation mixture consisted of 0.2 μmole of ^3 H-NA and the brain slices in 2 ml of Krebs-Henseleits buffer, pH 7.4. The radioactive ^3 H-NA taken up in the slices was extracted with ethanol and the amount was determined by liquid scintillation. The dose producing 50 percent decrease of the active uptake (ED50) was determined graphically from dose response curves. At least four animals were used at each dose level.
Inhibition (50 %) of uptake
^2) Na = dl-noradrenaline 10^-7 M

uptake of tritiated 5-HT [4] = assay: Inhibition of the uptake of tritiated 5-HT in vivo (drug i.p., uptake in midbrain slices); design: species or system mice; conditions: for time of maximal uptake inhibition: uptake inhibition increases with time; for duration of inhibition of the uptake mechanism compared with imipramine: uptake of 5-HT and noradrenaline
Dopa response = Dopa response potentiation test; format: in vivo, mice; conditions: score, pargyline pretreated; for L-DOPA potentiation, 10 mg/kg i.p., 1h: drug 1 h before 1-Dopa 100 mg/kg i.p.; for L-DOPA potentiation, 10 mg/kg i.p., 4h: drug 4 h before 1-Dopa 100 mg/kg i.p.
Method: Mice in groups of 3 are pretreated with Pargyline® 40 mg/kg p.o. about 10-16 hours before the test. […] 1-Dopa gives a characteristic syndrome which is scored as follows:
1. piloerection, slight salivation, slight increased motor activity
2. piloerection, salivation, marked increased motor activity and irritability
3. piloerection, profuse salivation, marked irritability and reactivity, jumping, squeaking, fighting.
The control groups are Amitriptyline (20 mg/kg i.p. 4 hours before 1-Dopa) and saline (1 hour before 1-Dopa). […] The test drugs were all tested at 10 mg/kg i.p.

rats = assay: Drug induced arrhythmia in rats: ECG changes and LD50; format: in vivo
From the text: (§7) Drug Induced Arrhythmia in Rats: ECG changes and LD50
(§8) Rats were infused intravenously with test drugs and relevant reference compounds. The doses are increased stepwise. The first dose causing ECG changes of any type was noted, and thereafter the doses were increased up to the lethal dose.

[5] = as above; format: in vivo; conditions: in vivo, iv; i.v. infusion, rat, stepwise increased doses
From the text: as §7, §8

[6] = test system: uptake of tritiated noradrenaline; assay: Inhibition of the uptake of tritiated noradrenaline in vivo (drug i.p., uptake in cortex slices); conditions: for ED50: ip, 1 h, read-out: Inhibition (50 %) of uptake in vivo, NA (ED50), i.p., half or one hour before the animals were killed; for selectivity towards noradrenaline: uptake inhibition, compared with imipramine
Method: as §5
as §6, with “The” for “The method is found in European Journal of Pharmacology 2 (1967), 181- 186. The”

mice [7] = assay: Motor activity in mice (exploratory activity, locomotion cage); format: in vivo; conditions: Mus musculus, ip, 1 h, read-out: Motor activity ID50
Method: The exploratory activity of mice was recorded in a locomotion cage in which the movements were counted each time the animals cross-circuit an electrical current in the bottom plate. The activity was recorded for ten minutes one hour after the administration of the drug. The animals were tested individually. Groups of six mice were used and the mice were only used once. The activity was expressed in percent of the activity of control groups ran simultaneously.

Acute toxicity in mice = conditions: mouse, in vivo, iv, within 24 hours
Method: as §3, §4

uptake of tritiated 5-HT [8] = assay: Inhibition of the uptake of tritiated 5-HT in vitro (midbrain slices); format: biochemical, mice; conditions: for Inhibition (50 %) of uptake in vitro, 5-HT: 5-hydroxytryptamine 10^-7 M
Method: as §1
as §2, with “The drugs were administered intraperitoneally half an hour before the animals were killed and the midbrain was taken” left out, “0.2 μmole of ^3 H-5-HT and 1 μmole of glucose in” left out

[9] = first observable after; cited from earlier work
[10] = i.p., one hour after administration
[11] = i.v., 10 minutes after injection, dose which increases the pupil by 200%

Compound | ED50 (uptake of tritiated 5-HT [1]) [mg/kg] | inhibition of uptake of 5-hydroxytryptamine in vivo, in words (uptake of tritiated 5-HT [1]) | 5-HTP potentiation, 25 mg/kg i.p., 1h (5-HTP response) | 5-HTP potentiation, 25 mg/kg i.p., 4h (5-HTP response) | Mydriasis PD200 (mice [2]; mouse, in vivo, iv, 10 min) [mg/kg] | Inhibition (50 %) of uptake in vitro, NA [3] [µg/mL] | inhibition of uptake of noradrenaline in vitro, in words [3] | uptake inhibition still pronounced after (uptake of tritiated 5-HT [4]) [h] | time of maximal uptake inhibition (uptake of tritiated 5-HT [4]) | duration of inhibition of the uptake mechanism compared with imipramine (uptake of tritiated 5-HT [4]) | L-DOPA potentiation, 10 mg/kg i.p., 1h (Dopa response) | L-DOPA potentiation, 10 mg/kg i.p., 4h (Dopa response) | inhibition of uptake of noradrenaline in vivo, in words [6] | ED50 [6] [mg/kg] | selectivity towards noradrenaline [6] | ED50 (mice [7]; [10]) [mg/kg] | LD50 at 24 h (Acute toxicity in mice) [mg/kg] | Inhibition (50 %) of uptake in vitro, 5-HT (uptake of tritiated 5-HT [8]) [µg/mL] | inhibition of uptake of 5-hydroxytryptamine in vitro, in words (uptake of tritiated 5-HT [8]) | Mydriasis PD200 (mice [2]; [11]) [mg/kg] | also measured
NC1CCC(c2ccccc2)(c2ccccc2)C1 (centres unmarked) [PUB 105, 1-Amino-3,3-diphenylcyclopentane] | 10 to 20 | strong inhibition | 12.5 | 25 | 19 | 0.15 | potent inhibitors | 16 | four | much longer time than does the reference substance imipramine | 3 | 3 | strong inhibition | 20 | substantially nonselective ability towards noradrenaline | > 50 | 22 | 0.18 | potent inhibitors |  | ECG changes i.v. rat (first dose causing ECG changes of any type) (rats; i.v. infusion): 14; dose causing ECG changes relative to that of imipramine (rats; i.v., rat): 3 times; LD50 [5]: 58 mg/kg
CN(C)C1CCC(c2ccccc2)(c2ccccc2)C1 (centres unmarked) [PUB 112, 1-dimethylamino-3,3-diphenylcyclopentane] | > 40 |  | 25 |  |  | 0.4 | potent inhibitors |  |  |  | 2.5 | 2 |  | 25 |  |  | 18 | 0.7 | potent inhibitors | < 1 | ED50 (mice [7]): > 50 mg/kg
CN(C)CCCN1c2ccccc2CCc2ccccc21 [Imipramine, imipramine, reference compound] | 24 |  | 25 | 0 |  | 0.06 |  |  |  |  | 2 | 1 |  | 6 |  |  |  | 0.10 |  | 13 | onset of antidepressive effect [9]: 3 weeks; potentiation of dl-5-HTP by reference, in words (5-HTP response; control group): constantly potentiated dl-5-HTP; ED50 (mice [7]): 45 mg/kg
CNCC1CCC(c2ccccc2)(c2ccccc2)C1 (centres unmarked) [PUE 122, 1-methylaminomethyl-3,3-diphenylcyclopentane] | > 40 |  | 0 |  | > 12.5 | 0.05 | strongly effective |  |  |  | 3 | 3 | Strong inhibition of the uptake of noradrenaline only | 5.5 |  | > 50 | 15 | 4.2 | considerably weaker effect |  | 
CNC1CCC(c2ccccc2)(c2ccccc2)C1 (centres unmarked) [PUB 107, 1-methylamino-3,3-diphenylcyclopentane] | > 40 |  | 0 |  | 15 | 0.7 | potent inhibitors |  |  |  | 2 | 2 |  | 20 |  | > 50 | 30 | 1 | potent inhibitors |  | 
NC1CCC(c2ccccc2)(c2ccc(Cl)cc2)C1 (centres unmarked) [PUN 122, 1-amino-3-(4-chlorophenyl)-3-phenylcyclopentane] | 20 | strong inhibition | 25 |  | > 12.5 | 0.3 | potent inhibitors | 16 | four | much longer time than does the reference substance imipramine | 3 | 3 | strong inhibition | 30 | substantially nonselective ability towards noradrenaline | > 50 | 15 | 0.7 | potent inhibitors |  | 
